{
  "source": "paper PMC3626250",
  "about": "“Effects of Borneol on Pharmacokinetics and Tissue Distribution of Notoginsenoside R1 and Ginsenosides Rg1 and Re in Panax notoginseng in Rabbits” (Journal of Analytical Methods in Chemistry, 2013)",
  "key": {"Caco-2 cells": {"tested_on": "Caco-2 cells", "test": "MTT cytotoxicity assay toward Caco-2 cells", "format": "cell-based", "details": "chosen for transport study", "description": "The Caco-2 cells were cultured in Dulbecco's modified Eagle's medium (DMEM) supplemented with 20% foetal bovine serum, 1% nonessential amino acids and penicillin-streptomycin, at 37°C in an atmosphere with a relative humidity of 95% and a CO2 flow of 5%. Medium was replaced every 2-3 days. When the cell monolayer reached 80% confluence, the cells were detached with a solution of 0.02% EDTA and 0.25% trypsin. The vinblastine-selected Caco-2 cells were cultivated in the presence of 10 nM vinblastine to induce P-glycoprotein (P-gp) expression. The culture medium was changed to a fresh medium without vinblastine 24 h before experiments, and the cells were used between passages 25 and 46. Prior to the transport study, cytotoxicity of NGR1, GRg1, GRe, and Borneol toward Caco-2 cells was determined using MTT assays. Noncytotoxic concentrations of 500 μM NGR1, GRg1, GRe, and 200 μM Borneol (dissolved in DMSO) were chosen for transport study."}, "Caco-2 cell monolayers": {"tested_on": "Caco-2 cell monolayers", "test": "TEER values of the Caco-2 cell monolayers", "format": "cell-based", "details": "200 μM Borneol with 500 μM NGR1, GRg1 and GRe, Caco-2 monolayers", "description": "In transport studies, vinblastine-selected Caco-2 cells were seeded on polycarbonate filter of transwells for 18–21 days before starting transport study, and the monolayers with the transepithelial electrical resistance (TEER) values greater than 300 Ωcm^2 were used. Caco-2 monolayers were rinsed twice with Hanks' balanced salt solution (HBSS) and preincubated in HBSS at 37°C for 30 min before starting experiments. To start the experiments, 500 μM of NGR1, GRg1, and GRe in final concentrations were added to the donor side with or without 200 μM Borneol and then incubated at 37°C. An aliquot of 0.1 mL samples were withdrawn from receiver chambers at 0, 30, 60, 90, and 120 min after the loading. After each sampling, 0.1 mL of HBSS was added to the receiver chamber to maintain a constant volume. All the experiments were performed five times in duplicate. […] During the above transport studies, the TEER values were also monitored before and at the end of each experiment. Apparent permeability coefficients (P app) were then calculated according to the following equation: (1) Papp=(dC/dt×V)/(A×C0), where dC/dt is the rate of the test compound appearing in the receiver chamber, V is the volume of the solution in the receiver chamber, A is the cell monolayer surface area, and C 0 is the initial concentration of the test compound added in the donor chamber. […]"}},
  "data": [
    {"smiles": "CC1(C)C2CCC1(C)C(O)C2", "note": "(centres unmarked) [Borneol]", "values": [
      {"measurement": "Noncytotoxic concentration", "setting": "Caco-2 cells", "result": 200, "unit": "µM"},
      {"measurement": "TEER values of the monolayers decreased reversibly to", "setting": "Caco-2 cell monolayers", "result": "about 23%"}
    ]}
  ]
}
